Laboratory results taken from US20080070888A1, “AZETIDINE AND AZETIDONE DERIVATIVES USEFUL IN TREATING PAIN AND DISORDERS OF LIPID METABOLISM” (priority 2006, published 2008).
Where a name gives a salt, the structure may show the parent alone.

What follows are compounds tested against T1, CaV3.2 (Homo sapiens, UniProt O95180) (assay: CaV3.2 assay: functional evaluation of T-type calcium currents (IonWorks HT screen for hCaV3.2 / conventional whole cell patch clamp) in stably transfected HEK cells).
T1 construct: expressed in transfected cells; host or cells: HEK cells, stably transfected; human Kir2.1 co-expressed
T1 sequence (O95180 whole entry): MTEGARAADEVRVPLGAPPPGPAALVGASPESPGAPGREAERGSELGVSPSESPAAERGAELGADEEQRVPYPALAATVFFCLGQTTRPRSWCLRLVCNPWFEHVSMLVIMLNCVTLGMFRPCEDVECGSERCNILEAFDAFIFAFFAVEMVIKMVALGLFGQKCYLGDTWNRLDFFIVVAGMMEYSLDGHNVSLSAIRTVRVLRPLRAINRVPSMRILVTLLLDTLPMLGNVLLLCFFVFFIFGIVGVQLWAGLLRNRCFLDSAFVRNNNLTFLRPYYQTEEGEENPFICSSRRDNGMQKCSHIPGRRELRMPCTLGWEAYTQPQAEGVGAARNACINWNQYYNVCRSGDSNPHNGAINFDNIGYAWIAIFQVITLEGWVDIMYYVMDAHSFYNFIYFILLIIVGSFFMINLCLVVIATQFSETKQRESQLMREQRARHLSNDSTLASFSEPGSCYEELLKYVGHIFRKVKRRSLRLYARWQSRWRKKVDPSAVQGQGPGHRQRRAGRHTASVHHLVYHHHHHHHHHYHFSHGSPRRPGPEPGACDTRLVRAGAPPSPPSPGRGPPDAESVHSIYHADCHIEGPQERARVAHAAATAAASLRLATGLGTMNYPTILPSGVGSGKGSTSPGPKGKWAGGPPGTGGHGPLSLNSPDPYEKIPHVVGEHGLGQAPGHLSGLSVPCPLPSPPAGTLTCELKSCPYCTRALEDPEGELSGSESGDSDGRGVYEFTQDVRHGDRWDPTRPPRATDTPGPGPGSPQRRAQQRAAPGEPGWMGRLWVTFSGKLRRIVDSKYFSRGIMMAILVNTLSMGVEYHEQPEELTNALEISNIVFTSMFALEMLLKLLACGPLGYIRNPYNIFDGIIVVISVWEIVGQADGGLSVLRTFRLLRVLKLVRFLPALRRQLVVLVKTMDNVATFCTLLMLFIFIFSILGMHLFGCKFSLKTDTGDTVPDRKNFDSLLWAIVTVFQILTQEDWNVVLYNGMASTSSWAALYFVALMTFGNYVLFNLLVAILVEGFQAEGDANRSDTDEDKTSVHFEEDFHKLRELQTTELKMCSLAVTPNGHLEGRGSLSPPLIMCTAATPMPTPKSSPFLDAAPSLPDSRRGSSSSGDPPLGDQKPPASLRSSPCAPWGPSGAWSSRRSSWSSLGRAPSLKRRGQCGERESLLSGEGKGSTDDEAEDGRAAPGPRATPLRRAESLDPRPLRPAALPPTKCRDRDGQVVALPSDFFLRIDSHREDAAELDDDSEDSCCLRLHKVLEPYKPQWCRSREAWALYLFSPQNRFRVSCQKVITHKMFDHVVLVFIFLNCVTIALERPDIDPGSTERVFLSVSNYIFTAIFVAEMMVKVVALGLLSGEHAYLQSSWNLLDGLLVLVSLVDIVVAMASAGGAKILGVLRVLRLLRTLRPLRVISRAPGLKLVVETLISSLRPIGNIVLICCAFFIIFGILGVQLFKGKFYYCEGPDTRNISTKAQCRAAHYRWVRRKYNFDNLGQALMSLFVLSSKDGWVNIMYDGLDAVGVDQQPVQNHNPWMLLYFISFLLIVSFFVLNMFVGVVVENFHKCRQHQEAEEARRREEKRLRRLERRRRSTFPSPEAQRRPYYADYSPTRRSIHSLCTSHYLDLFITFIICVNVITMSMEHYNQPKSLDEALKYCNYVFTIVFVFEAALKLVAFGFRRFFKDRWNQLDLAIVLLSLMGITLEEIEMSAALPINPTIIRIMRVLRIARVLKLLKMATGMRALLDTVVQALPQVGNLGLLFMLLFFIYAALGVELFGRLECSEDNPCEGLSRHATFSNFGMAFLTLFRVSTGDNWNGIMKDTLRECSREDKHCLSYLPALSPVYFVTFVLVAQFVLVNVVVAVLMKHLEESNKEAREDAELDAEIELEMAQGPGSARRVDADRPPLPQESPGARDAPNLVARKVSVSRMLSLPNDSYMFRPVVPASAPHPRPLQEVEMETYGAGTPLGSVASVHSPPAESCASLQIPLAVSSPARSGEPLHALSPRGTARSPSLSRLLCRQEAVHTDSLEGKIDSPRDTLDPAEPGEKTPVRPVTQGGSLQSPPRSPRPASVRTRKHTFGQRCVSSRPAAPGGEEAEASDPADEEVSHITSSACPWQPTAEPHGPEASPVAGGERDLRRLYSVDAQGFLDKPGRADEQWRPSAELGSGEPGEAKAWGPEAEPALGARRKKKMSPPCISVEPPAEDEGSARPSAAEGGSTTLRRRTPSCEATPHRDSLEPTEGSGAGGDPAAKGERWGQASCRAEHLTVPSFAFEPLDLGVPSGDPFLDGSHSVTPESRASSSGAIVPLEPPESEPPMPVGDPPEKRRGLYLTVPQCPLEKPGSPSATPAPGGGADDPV
Assay type: cell-based
Description: Functional evaluation of voltage-gated ion channels was used to determine potency and/or single concentration efficacy of proprietary compounds. Two different methodologies were used to measure ion currents: the IonWorks HT (Molecular Devices, Sunnyvale, Calif.) a moderate throughput voltage clamp screening platform that utilizes 96-well compound plates and conventional whole cell patch clamp for lower throughput, higher fidelity determinations.
HEK cells were transiently transfected and then selected for stable heterologous expression of different channel proteins of interest. Calcium channel cell lines expressed a resting potassium current, human Kir2.1, and the pore forming α-subunit of voltage-gated calcium channels. In the case of Cav2.1 cells the auxiliary subunit, β2a, was also expressed. Calcium channel lines that were used to generate the data in this document expressed either human Cav3.2, rat Cav3.2 or human Cav2.1. The human heart sodium channel, hNav1.5, was stably expressed in CHO cells. These cells were licensed from the University of Pennsylvania.
Cell lines were grown at 37° C. in humidified incubators, equilibrated with 95% air/5% CO2. CHO cells were grown in Ham's F-12 medium. HEK cells were grown in DMEM. All media were supplemented with 10% heat-inactivated fetal bovine serum, penicillin, streptomycin and appropriate selection antibiotics (zeocin, geneticin and/or hygromycin). Cells were passaged when 80% confluent or less.
Ionworks Screen for hCaV3.2
The extracellular buffer for experiments using this instrument contained the following (mM) (NaCl 125, HEPES 10, KCl 5.4, CaCl2 1.8, MgCl2 1.8, 0.2 BaCl2 pH 7.35). […]
Experiments were performed at room temperature. […] During this time leak currents were measured during a step to −110 mV (200 milliseconds). […]
T-type currents were measured as the peak inward current minus the current at the end of the 250 msec step to −20 mV. […] After incubation with compound for 10 minutes currents were measured again. […] For each compound, 8-point concentration-effect relationships were measured with ½ log serial dilutions. […]

Compound | IC50 [µM]
CC(C)N1CC2(CCN(c3nc4cc(F)c(C(F)(F)F)cc4[nH]3)CC2)C1c1ccc(Cl)cc1 (stereo not drawn) [Example 2] | 0.212
CC(C)N1CC2(CCN(c3ccccn3)CC2)C1c1ccc(Cl)cc1 (stereo not drawn) [Example 3, 1-(4-Chlorophenyl)-2-(1-methylethyl)-7-(2-pyridinyl)-2,7-diazaspiro[3.5]nonane, formic acid salt] | 4.99
CC(C)N1CC2(CCN(c3ncccn3)CC2)C1c1ccc(Cl)cc1 (stereo not drawn) [Example 4, 1-(4-Chlorophenyl)-2-(1-methylethyl)-7-(2-pyrimidinyl)-2,7-diazaspiro[3.5]nonane, formic acid salt] | 8.63
